Measurements as given in ChEMBL document CHEMBL1201862, “PubChem BioAssay data set” (2004).
Calls of active or inactive are those of the source.

Assays:
Mu-type opioid receptor = Mu-type opioid receptor (Homo sapiens, UniProt P35372); assay: HTS Image-Based Screen for Agonists of the MOR Receptor. [Related pubchem assays (depositor defined):AID1777, AID1785, AID1786, AID2133]; format: functional;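 note: imaging of beta-arrestin GFP recruitment into spots after receptor activation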
[1] = target: T1, Delta-type opioid receptor (Homo sapiens, UniProt P41143); assay: HTS Image-Based Screen for Agonists of the DOR Receptor. [Related pubchem assays (depositor defined):AID1777, AID1786, AID2133]; format: functional
Beta-galactosidase = Beta-galactosidase (Escherichia coli, UniProt Q8VNN2); format: functional
[2] = target: T2, Kappa-type opioid receptor (Homo sapiens, UniProt P41145); format: functional
[3] = target: T2, Kappa-type opioid receptor; format: functional; remark: listed apart in the source
[4] = target: T1, Delta-type opioid receptor; assay: HTS Image-Based Screen for Antagonists of the DOR Receptor. [Related pubchem assays (depositor defined):AID1777, AID1785, AID1786, AID2133]; format: functional
[5] = target: T2, Kappa-type opioid receptor; assay: SAR analysis of small molecule agonists of the kappa opioid receptor via a luminescent beta-arrestin assay - Set 3. [Related pubchem assays (depositor defined):AID1777, AID1785, AID1786, AID1966, AID2133, AID2136, AID2284, AID2500]; format: functional
[6] = target: Eukaryotic translation initiation factor 4E (Mus musculus, UniProt P63073); assay: eIF4E–eIF4G protein interaction inhibitors, dose response, biochemical, TR-FRET (AID 855); format: functional;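 note: potency for disrupting eIF4E binding to eIF4GI seen as loss of FRET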
[7] = target: T3, Tyrosine-protein phosphatase non-receptor type 22 (Homo sapiens, UniProt Q9Y2R2); format: functional
T3 sequence (Q9Y2R2 whole entry): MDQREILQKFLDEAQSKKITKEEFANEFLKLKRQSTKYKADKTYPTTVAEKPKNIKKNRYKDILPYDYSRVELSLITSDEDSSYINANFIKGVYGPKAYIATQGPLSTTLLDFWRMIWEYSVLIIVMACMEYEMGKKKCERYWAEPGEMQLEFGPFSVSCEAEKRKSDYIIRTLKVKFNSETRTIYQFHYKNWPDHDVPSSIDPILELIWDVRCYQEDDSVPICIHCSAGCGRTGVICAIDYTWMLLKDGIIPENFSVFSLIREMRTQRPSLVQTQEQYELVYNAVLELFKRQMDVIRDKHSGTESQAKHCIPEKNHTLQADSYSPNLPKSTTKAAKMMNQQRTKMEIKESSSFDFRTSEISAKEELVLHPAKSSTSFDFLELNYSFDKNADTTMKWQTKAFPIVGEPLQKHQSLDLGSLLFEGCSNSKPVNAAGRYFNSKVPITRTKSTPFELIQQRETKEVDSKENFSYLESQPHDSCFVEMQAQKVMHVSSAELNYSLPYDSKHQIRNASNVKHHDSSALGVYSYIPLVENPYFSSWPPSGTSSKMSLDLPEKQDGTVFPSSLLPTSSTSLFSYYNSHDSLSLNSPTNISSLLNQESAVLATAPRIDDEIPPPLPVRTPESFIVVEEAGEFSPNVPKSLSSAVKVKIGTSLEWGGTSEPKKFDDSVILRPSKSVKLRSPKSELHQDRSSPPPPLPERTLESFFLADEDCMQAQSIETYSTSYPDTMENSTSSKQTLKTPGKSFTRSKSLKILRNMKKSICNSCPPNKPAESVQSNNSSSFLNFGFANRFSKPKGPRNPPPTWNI

[8] = target: T4, Voltage-gated N-type calcium channel alpha-1B subunit/Amyloid beta A4 precursor protein-binding family A member 1 (Homo sapiens, UniProt Q00975+Q02410); format: protein assay
[9] = target: Induced myeloid leukemia cell differentiation protein Mcl-1 (Homo sapiens, UniProt Q07820); format: functional
[10] = target: 26S proteasome non-ATPase regulatory subunit 14 (Homo sapiens, UniProt O00487); assay: inhibition of proteasome subunit RPN11 – biochemical, fluorescence polarization, uHTS hits, confirmation (AID 602368); format: functional
[11] = target: T4, Voltage-gated N-type calcium channel alpha-1B subunit/Amyloid beta A4 precursor protein-binding family A member 1; format: protein assay; remark: listed apart in the source
Prothrombin = Prothrombin (Bos taurus, UniProt P00735); assay: thrombin inhibition, dose response, biochemical, fluorescence polarization, uHTS hits (AID 602369); format: functional
[12] = target: T5, Tyrosine-protein phosphatase non-receptor type 7 (Homo sapiens, UniProt P35236); assay: redox-dependent HePTP inhibition, mechanism study, biochemical, fluorescence (AID 2068); format: functional
T5 sequence (P35236 whole entry): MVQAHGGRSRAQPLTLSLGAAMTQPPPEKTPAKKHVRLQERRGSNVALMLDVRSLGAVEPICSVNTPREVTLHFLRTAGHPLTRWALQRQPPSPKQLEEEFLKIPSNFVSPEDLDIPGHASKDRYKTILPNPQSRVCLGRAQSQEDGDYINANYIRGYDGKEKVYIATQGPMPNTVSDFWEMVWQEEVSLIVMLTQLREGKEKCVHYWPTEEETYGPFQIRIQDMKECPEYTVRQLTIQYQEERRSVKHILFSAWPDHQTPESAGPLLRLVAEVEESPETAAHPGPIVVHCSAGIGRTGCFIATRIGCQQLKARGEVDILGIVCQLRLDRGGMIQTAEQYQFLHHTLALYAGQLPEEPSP

[13] = target: 72 kDa type IV collagenase (Homo sapiens, UniProt P08253); assay: Dose Response validation of uHTS RPN11 inhibitor hits using a MMP-2 Fluorescence assay.; format: functional
NS3 = NS3 (Hepatitis C virus, UniProt A3EZJ3); assay: PubChem AID 2173; parameters: species or system Hepacivirus hominis
[14] = target: T6, Small ubiquitin-related modifier 1 (Homo sapiens, UniProt P63165); assay: inhibitors of SUMO1 peptide binding, dose response, biochemical, fluorescence polarization, uHTS hits (AID 624382); format: functional; conditions: read-out: IC50_Mean
[15] = target: T7, Dual specificity protein phosphatase 3 (Homo sapiens, UniProt P51452); assay: VHR1 phosphatase inhibitors, biochemical (AID 1878)
[16] = target: T8, Dual specificity protein phosphatase 6 (Rattus norvegicus, UniProt Q64346); format: functional;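 note: confirmatory in vitro dose-response testing of MKP-3 inhibition; recombinant His-tagged MKP-3 made in E. coli BL21 with OMFP substrate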
T8 sequence (Q64346 whole entry): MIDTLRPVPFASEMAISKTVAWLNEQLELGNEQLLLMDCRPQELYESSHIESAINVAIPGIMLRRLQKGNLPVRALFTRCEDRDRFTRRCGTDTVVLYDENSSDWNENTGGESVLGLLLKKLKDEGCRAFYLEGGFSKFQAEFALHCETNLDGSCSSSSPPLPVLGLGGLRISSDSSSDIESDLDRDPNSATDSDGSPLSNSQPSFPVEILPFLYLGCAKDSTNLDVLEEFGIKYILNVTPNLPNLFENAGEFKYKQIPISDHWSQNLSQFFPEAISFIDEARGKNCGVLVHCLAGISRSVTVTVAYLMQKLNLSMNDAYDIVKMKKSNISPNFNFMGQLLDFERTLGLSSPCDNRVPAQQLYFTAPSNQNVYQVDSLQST

[17] = target: T6, Small ubiquitin-related modifier 1; assay: inhibitors of SUMO1 partner interactions, dose response, biochemical, FRET (AID 624383); format: functional; conditions: read-out: IC50_Mean
[18] = target: T5, Tyrosine-protein phosphatase non-receptor type 7; format: functional
[19] = target: T7, Dual specificity protein phosphatase 3; assay: VHR1 phosphatase inhibitors, primary screen, biochemical, absorbance, uHTS (AID 1654)
[20] = target: T7, Dual specificity protein phosphatase 3; assay: SAR VHR1 absorbance Assay for In Vitro dose response studies. [Related pubchem assays (depositor defined):AID1654, AID1661, AID1878, AID1992, AID2004]
[21] = target: T8, Dual specificity protein phosphatase 6; assay: MKP-3 phosphatase inhibitors, primary screen, biochemical, rat enzyme, in vitro (AID 425)
[22] = target: T7, Dual specificity protein phosphatase 3; assay: SAR VHR1 Fluorescent Assay for In Vitro dose response studies Set 2. [Related pubchem assays (depositor defined):AID1654, AID1661, AID1878]; format: functional
[23] = target: T3, Tyrosine-protein phosphatase non-receptor type 22; format: functional; remark: listed apart in the source
[24] = target: T7, Dual specificity protein phosphatase 3; assay: SAR VHR1 Fluorescent Assay for In Vitro dose response studies. [Related pubchem assays (depositor defined):AID1654, AID1661, AID1878, AID1992, AID2004, AID2070, AID2085]; format: functional

T7 sequence (P51452 whole entry): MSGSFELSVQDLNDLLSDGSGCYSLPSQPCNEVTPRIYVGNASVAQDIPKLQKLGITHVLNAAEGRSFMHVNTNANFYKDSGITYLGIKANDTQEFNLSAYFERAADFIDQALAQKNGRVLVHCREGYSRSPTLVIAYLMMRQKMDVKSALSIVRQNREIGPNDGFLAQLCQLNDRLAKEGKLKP
T2 sequence (P41145 whole entry): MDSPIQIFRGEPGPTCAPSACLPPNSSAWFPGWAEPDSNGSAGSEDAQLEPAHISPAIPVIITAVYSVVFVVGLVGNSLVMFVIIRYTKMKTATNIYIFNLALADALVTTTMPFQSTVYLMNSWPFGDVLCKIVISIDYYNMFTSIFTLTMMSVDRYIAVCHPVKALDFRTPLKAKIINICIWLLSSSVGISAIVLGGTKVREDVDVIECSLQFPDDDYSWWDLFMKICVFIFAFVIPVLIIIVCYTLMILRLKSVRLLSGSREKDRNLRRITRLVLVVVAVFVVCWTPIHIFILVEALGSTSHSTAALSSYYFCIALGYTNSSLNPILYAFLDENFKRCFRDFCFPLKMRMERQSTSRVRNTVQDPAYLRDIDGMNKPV
T4 sequence (Q00975 whole entry): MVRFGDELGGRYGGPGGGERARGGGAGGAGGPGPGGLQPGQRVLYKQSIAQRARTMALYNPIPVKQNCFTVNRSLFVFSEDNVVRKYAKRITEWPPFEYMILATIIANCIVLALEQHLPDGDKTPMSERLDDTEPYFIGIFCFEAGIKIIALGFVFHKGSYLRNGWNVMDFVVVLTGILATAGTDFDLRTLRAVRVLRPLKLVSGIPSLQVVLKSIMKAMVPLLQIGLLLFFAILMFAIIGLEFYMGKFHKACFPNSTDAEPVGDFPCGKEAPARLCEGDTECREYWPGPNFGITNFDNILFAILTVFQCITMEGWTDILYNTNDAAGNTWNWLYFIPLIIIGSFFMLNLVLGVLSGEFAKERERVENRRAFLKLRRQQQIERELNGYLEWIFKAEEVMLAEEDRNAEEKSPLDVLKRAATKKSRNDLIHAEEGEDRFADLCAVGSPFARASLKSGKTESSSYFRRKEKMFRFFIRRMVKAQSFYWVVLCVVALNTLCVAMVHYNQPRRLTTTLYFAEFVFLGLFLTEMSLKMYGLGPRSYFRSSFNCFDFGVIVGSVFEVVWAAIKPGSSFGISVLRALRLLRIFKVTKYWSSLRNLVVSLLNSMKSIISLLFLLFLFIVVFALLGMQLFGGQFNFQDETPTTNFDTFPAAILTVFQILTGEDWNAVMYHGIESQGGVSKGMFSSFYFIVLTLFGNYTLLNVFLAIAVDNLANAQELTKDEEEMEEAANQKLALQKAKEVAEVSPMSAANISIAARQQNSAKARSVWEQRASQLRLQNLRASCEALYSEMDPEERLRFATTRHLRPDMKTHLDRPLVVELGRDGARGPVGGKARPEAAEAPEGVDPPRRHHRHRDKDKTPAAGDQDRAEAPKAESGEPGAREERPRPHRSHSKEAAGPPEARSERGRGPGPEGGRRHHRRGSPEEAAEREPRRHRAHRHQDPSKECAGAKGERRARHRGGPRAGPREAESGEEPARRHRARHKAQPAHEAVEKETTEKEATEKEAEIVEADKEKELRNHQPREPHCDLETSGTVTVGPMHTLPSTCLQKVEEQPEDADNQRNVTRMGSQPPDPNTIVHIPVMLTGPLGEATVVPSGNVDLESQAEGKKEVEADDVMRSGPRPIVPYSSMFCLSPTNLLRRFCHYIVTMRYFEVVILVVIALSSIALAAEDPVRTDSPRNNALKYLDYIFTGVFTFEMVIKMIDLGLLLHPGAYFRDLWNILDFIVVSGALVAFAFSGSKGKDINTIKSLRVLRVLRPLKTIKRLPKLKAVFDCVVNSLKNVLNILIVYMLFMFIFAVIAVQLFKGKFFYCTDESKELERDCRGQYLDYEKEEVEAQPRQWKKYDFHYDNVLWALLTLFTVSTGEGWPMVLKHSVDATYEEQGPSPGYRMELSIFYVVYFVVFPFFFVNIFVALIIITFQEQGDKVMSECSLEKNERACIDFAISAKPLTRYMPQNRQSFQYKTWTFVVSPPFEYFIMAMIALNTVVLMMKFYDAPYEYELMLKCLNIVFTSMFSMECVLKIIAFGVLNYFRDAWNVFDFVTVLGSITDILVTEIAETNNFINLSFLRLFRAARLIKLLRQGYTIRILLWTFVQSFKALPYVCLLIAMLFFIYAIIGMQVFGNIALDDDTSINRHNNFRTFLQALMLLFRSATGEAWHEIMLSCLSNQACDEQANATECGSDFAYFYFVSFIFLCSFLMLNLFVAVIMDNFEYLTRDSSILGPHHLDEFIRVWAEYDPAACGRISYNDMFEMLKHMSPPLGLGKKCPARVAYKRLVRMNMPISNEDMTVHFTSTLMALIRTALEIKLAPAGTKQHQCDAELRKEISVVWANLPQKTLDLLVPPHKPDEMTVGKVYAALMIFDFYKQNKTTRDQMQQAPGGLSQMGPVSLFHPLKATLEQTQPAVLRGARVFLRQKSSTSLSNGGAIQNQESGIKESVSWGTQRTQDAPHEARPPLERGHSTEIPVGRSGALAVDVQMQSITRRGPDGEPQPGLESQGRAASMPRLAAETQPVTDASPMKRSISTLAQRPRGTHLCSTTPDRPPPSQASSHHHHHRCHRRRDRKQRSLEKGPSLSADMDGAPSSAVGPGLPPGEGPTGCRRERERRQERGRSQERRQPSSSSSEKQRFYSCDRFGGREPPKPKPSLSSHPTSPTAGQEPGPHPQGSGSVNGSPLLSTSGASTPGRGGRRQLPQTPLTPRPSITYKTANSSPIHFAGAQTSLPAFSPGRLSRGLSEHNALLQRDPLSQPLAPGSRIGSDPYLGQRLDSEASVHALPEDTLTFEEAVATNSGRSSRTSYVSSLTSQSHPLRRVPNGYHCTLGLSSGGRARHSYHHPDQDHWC
T4 sequence (Q02410 whole entry): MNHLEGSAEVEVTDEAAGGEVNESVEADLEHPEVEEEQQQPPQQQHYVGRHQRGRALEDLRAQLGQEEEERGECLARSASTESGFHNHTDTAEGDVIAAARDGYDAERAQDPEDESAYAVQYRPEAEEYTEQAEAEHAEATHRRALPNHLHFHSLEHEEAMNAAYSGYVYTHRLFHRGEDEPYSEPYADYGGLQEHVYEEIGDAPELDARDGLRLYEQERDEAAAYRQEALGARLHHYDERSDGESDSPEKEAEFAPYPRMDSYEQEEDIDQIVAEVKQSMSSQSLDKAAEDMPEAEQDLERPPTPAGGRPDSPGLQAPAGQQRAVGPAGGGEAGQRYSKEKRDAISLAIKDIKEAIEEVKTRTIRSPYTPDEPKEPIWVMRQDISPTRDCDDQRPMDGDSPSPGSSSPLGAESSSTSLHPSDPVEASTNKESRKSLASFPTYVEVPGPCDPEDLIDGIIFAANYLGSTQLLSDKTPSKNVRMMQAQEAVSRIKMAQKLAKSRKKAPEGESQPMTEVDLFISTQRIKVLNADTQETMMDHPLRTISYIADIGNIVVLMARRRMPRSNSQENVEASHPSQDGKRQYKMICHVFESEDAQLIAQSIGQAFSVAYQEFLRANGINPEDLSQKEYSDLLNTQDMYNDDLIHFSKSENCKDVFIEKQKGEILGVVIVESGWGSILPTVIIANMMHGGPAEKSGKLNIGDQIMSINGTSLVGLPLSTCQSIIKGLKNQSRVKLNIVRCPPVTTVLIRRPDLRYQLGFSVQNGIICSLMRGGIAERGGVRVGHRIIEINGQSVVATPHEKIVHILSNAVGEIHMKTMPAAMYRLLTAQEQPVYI
T1 sequence (P41143 whole entry): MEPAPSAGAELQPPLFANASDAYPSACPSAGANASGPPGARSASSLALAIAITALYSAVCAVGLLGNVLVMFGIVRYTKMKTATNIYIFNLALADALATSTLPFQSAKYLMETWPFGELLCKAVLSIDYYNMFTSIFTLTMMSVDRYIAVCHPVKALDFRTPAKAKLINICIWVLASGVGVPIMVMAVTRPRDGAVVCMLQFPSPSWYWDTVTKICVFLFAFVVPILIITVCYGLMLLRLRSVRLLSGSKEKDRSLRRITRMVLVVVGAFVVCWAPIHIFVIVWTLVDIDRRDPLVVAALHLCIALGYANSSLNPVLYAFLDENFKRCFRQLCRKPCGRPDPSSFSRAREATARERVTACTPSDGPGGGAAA
T6 sequence (P63165 whole entry): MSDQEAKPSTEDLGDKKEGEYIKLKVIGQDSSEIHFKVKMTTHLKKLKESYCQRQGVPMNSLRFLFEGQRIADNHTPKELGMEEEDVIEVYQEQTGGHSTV
72 kDa type IV collagenase, sequence (P08253 whole entry): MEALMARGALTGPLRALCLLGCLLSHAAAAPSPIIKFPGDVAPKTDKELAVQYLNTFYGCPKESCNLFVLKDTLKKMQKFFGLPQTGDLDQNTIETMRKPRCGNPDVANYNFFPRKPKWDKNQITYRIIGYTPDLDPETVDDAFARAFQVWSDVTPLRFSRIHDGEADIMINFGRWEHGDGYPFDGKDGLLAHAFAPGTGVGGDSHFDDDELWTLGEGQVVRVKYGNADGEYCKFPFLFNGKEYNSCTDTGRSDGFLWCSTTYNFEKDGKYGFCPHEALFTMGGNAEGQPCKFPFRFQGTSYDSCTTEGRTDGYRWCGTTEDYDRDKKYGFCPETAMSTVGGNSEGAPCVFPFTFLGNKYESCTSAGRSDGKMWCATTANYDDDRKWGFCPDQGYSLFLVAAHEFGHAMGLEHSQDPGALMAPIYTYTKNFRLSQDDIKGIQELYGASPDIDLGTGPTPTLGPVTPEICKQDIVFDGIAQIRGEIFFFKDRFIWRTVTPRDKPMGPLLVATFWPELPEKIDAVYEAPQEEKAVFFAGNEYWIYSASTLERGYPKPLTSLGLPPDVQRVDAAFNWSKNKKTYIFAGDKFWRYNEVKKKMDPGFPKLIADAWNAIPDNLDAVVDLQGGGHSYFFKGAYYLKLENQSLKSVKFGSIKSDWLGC

## COc1ccc(S(=O)(=O)N(CC(=O)Nc2ccc(S(=O)(=O)N3CCOCC3)cc2)c2ccccc2)cc1
Mu-type opioid receptor
  EC50: > 32 µM (inactive)
[1]
  EC50: > 32 µM (inactive)
Beta-galactosidase
  EC50: > 31.5 µM (inactive)
[2]
  IC50: 2.82 µM (active)
[3]
  IC50: 4.04 µM
[4]
  IC50: > 32 µM (inactive)

## c1ccc(CSc2nnc(-c3ccncc3)n2Cc2ccco2)cc1
[5]
  EC50: > 20 µM (inactive)

## CCOC(=O)c1sc2nc3c(SCCC(=O)O)cc(C(=O)c4cc(OC)ccc4O)cn3c(=O)c2c1C
[6]
  IC50: 50 µM (inactive)
[7]
  IC50: 2.02 µM (active)
[8]
  IC50: 36.2 µM (active)
[9]
  IC50: 1.24 µM (active)
[10]
  IC50: 8.13 µM (active)
[11]
  IC50: 8.15 µM (active)
Prothrombin
  IC50: 72.5 µM (active)
[12]
  IC50: 209 nM (active)
[13]
  IC50: 1.04 µM (active)
NS3
  IC50: 2.58 µM (active)
[14]
  IC50: > 66.6 µM (inactive)
[15]
  IC50: < 1.23 µM (inactive)
[16]
  IC50: 59.5 µM (active)
[17]
  IC50: 5.54 µM (active)
[18]
  IC50: 1.68 µM (active)
[19]
  IC50: 4.87 µM (active)
[20]
  IC50: 1.29 µM (active)
[21]
  IC50: 101 µM (not active)
[22]
  IC50: < 195 nM (active)
[23]
  IC50: 7.26 µM (active)
[24]
  IC50: 480 nM (active)
